ChEMBL document CHEMBL4145579, “Plasmodial Kinase Inhibitors: License to Cure?” (J Med Chem, 2018)

Assays:
[1] = target: T1, Calcium-dependent protein kinase 1 (Plasmodium falciparum, UniProt P62344); test: Inhibition of Plasmodium falciparum recombinant CDPK1 expressed in Escherichia coli expression system after 1 hr in presence of [gamma33P]ATP by scintillation proximity assay
Plasmodium falciparum [2] = test: Antiplasmodial activity against mature gametocytes of Plasmodium falciparum 3D7 […]; assay type: functional, organism-based
[3] = Inhibition of Plasmodium falciparum PKG
[4] = Inhibition of recombinant Plasmodium vivax PI4K
Plasmodium berghei [5] = test: Antiplasmodial activity Plasmodium berghei infected in po dosed mouse; assay type: functional
Plasmodium falciparum [6] = test: Antiplasmodial activity drug-sensitive Plasmodium falciparum 3D7 infected in po dosed humanized SCID mouse assessed as decrease in blood parasitemia administered once daily for 4 days measure on day 7 by flow cytometric method; assay type: functional
Plasmodium falciparum [7] = test: Antiplasmodial activity against Plasmodium falciparum NF54; assay type: functional, organism-based
[8] = Inhibition of Plasmodium falciparum 3D7 6xHis-tagged PI3K helica domain expressed in Escherichia coli by Western blot analysis
[9] = target: T1, Calcium-dependent protein kinase 1; test: Inhibition of Plasmodium falciparum recombinant His-tagged CDPK1 expressed in Escherichia coli BL21(DE3) after 1 hr in presence of [gamma33P]ATP by scintillation proximity assay
[10] = target: Cyclin-dependent kinase 5/CDK5 activator 1 (Homo sapiens) (UniProt Q00535+Q15078); test: Inhibition of recombinant human N-terminal His6-tagged full length CDK5/recombinant human N-terminal GST-tagged full length p25 at 10 uM; assay type: protein-complex assay
Chain of Cyclin-dependent kinase 5/CDK5 activator 1 (Homo sapiens) (Q00535 whole entry): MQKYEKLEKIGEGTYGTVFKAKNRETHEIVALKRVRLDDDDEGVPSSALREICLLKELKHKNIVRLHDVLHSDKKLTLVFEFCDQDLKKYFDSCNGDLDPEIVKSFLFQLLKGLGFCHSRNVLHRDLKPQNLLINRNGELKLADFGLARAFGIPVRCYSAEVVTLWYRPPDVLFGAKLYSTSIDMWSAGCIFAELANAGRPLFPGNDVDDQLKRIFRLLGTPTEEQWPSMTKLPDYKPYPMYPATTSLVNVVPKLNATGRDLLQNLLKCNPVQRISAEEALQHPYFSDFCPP
Chain of Cyclin-dependent kinase 5/CDK5 activator 1 (Homo sapiens) (Q15078 99-307 partner limits assumed): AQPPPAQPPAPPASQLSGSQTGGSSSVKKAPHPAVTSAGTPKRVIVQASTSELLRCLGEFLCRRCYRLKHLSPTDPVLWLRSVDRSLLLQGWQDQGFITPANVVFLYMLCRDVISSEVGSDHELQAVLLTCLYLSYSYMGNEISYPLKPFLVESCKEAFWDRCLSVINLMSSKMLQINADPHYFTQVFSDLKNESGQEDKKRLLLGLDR

Plasmodium falciparum [11] = test: Antiplasmodial activity against chloroquine-sensitive Plasmodium falciparum D6 infected in human red blood cells preincubated for 24 hrs followed by [3H]-hypoxanthine addition measured after 18 hrs by scintillation counting; assay type: functional, organism-based
[12] = Inhibition of Plasmodium falciparum recombinant expressed in Toxoplasma gondii after 60 mins in presence of [33P]ATP by scintillation counting
Plasmodium falciparum [13] = test: Antiplasmodial activity against Plasmodium falciparum NF54 gametocyte form infected in human erythrocytes by scintillation counting-based [3H]-hypoxanthine incorporation assay; assay type: functional, organism-based
Plasmodium falciparum [14] = test: Antiplasmodial activity against chloroquine-sensitive Plasmodium falciparum Dd2 gametocyte form infected in human erythrocytes by scintillation counting-based [3H]-hypoxanthine incorporation assay; assay type: functional, organism-based
Plasmodium falciparum [15] = test: Inhibition of Plasmodium falciparum NF54 exflagellation measured on day 15 post parasite growth; assay type: functional, organism-based; conditions: NF54, 360 h
[16] = target: Mitogen-activated protein kinase 14 (Homo sapiens) (UniProt Q16539); test: Inhibition of recombinant human N-terminal GST-tagged full length SAPK2alpha expressed in Escherichia coli at 10 uM
Chain of Mitogen-activated protein kinase 14 (Homo sapiens) (Q16539 whole entry, the tested form may be a part): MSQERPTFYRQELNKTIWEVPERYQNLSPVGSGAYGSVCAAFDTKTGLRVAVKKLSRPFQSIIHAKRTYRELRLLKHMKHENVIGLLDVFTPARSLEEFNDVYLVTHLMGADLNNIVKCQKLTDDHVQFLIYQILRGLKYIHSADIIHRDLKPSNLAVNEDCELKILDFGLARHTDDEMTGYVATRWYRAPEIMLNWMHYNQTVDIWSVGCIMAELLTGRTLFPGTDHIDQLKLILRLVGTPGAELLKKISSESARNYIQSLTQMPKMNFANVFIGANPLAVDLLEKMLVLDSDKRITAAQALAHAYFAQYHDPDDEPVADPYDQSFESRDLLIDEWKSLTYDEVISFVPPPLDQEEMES

[17] = target: Fibroblast growth factor receptor 1 (Homo sapiens) (UniProt P11362); test: Inhibition of recombinant human N-terminal GST-tagged FGFR1 (456 to 765 residues) expressed in Escherichia coli at 10 uM
Chain of Fibroblast growth factor receptor 1 (Homo sapiens) (P11362 22-822 limits assumed): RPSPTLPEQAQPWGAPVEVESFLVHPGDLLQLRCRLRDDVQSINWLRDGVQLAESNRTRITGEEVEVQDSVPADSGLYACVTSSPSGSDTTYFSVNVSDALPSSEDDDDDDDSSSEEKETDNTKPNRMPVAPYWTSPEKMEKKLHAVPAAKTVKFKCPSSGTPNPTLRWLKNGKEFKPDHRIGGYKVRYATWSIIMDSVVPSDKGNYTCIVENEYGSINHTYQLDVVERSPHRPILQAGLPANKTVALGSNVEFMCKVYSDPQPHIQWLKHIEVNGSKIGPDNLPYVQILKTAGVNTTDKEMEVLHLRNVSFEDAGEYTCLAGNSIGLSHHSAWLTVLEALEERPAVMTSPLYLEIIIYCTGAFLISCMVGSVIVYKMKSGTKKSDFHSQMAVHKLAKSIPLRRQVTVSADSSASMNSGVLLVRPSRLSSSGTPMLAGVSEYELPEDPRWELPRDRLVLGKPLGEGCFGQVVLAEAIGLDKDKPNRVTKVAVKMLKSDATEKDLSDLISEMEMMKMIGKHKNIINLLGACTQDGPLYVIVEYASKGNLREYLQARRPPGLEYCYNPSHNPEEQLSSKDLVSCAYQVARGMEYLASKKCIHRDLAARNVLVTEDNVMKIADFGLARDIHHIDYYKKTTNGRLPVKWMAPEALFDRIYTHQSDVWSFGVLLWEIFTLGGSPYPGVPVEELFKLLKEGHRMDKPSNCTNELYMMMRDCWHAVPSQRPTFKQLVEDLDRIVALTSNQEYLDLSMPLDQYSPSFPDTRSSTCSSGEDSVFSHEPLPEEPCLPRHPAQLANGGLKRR

Plasmodium berghei [18] = test: Antiplasmodial activity Plasmodium berghei infected in ip dosed mouse; assay type: functional
Plasmodium falciparum [19] = test: Antiplasmodial activity against mature gametocytes of Plasmodium falciparum NF54 […] by standard membrane feeding assay; assay type: functional, organism-based
Plasmodium falciparum [20] = test: Antiplasmodial activity against Plasmodium falciparum infected in CD1 mouse at 100 mg/kg, po bid for 4 days; assay type: functional
[21] = target: T2, Calcium-dependent protein kinase 4 (Plasmodium falciparum (isolate 3D7), UniProt Q8IBS5); test: Inhibition of Plasmodium falciparum His-tagged CDPK4 expressed in Escherichia coli BL21(DE3) using […] as substrate after 10 mins in presence of ATP
T2 sequence (Q8IBS5 whole entry): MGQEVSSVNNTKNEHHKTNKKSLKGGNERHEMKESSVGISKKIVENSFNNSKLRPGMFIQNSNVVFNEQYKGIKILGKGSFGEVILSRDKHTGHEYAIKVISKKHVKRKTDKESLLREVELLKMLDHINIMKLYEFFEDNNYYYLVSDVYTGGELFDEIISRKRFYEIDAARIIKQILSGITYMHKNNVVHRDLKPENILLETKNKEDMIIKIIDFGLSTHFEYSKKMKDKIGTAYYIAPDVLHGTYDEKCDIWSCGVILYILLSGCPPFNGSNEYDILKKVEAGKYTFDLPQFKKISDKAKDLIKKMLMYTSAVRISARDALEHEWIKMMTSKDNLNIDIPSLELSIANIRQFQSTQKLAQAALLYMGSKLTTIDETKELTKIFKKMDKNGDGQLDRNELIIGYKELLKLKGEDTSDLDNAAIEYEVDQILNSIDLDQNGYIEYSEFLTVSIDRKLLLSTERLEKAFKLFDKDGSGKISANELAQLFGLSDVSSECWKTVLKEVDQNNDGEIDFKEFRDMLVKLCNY

Plasmodium falciparum [22] = test: Antiplasmodial activity against Plasmodium falciparum FCB infected in human erythrocytes after 30 mins by FACS analysis; assay type: functional, organism-based; conditions: 0.5 h

T1 sequence (P62344 whole entry): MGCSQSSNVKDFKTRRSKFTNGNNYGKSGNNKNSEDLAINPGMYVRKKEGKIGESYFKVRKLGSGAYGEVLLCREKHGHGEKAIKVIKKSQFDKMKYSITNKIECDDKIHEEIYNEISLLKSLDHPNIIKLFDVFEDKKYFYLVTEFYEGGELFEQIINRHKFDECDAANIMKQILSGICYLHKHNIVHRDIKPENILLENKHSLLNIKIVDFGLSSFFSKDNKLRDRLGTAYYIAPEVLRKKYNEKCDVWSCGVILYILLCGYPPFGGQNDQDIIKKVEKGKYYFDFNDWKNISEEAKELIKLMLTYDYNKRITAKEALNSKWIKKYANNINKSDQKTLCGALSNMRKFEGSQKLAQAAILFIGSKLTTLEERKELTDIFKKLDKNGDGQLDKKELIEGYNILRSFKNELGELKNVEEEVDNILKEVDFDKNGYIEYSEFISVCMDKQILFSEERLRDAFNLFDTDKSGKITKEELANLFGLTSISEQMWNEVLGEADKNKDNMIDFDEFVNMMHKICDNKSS

`N[C@H]1CC[C@H](Nc2nc(Nc3ccc(C(=O)N4CCCCC4)cc3)c3ncn(-c4cccc(F)c4)c3n2)CC1` [PURFALCAMINE] showed an IC50 [1] of 0.013 to 0.017 µM.

In the case of `CN(C)Cc1ccn2c(-c3ccnc(NCC4CC4)n3)c(-c3cccc(S(C)(=O)=O)c3)nc2c1`, the IC50 (Plasmodium falciparum [2]) is reported as 0.102 µM and the IC50 [3] is reported as 0.00013 µM.

Compound `CS(=O)(=O)c1ccc(-c2cnc(N)c(-c3ccc(C(F)(F)F)nc3)c2)cc1` [MMV-048] has an IC50 [4] of 0.0034 µM, an ED90 (Plasmodium berghei [5]) of 0.8 mg/kg and an ED90 (Plasmodium falciparum [6]) of 0.57 mg/kg.

`O=c1cc(N2CCOCC2)oc2c(-c3ccccc3)cccc12` [LY-294002] gave an IC50 (Plasmodium falciparum [7]) of 3 µM and an IC50 [8] of 25 µM.

For `CCCNc1ccc2ncc(-c3cccc(O)c3)n2n1`, the Ki [9] was 0.037 µM and the inhibition [10] was 89%.

With `O=C1Nc2ccc(Br)cc2/C1=C\C(=O)c1ccc(F)cc1` the IC50 (Plasmodium falciparum [11]) was > 14 µM.

With `CN1CCC(c2cc(-c3ccncc3)c(-c3ccc(F)cc3)[nH]2)CC1` the IC50 (Plasmodium falciparum [2]) was 0.49 µM, the IC50 [12] was 0.0035 µM and the IC50 (Plasmodium falciparum [13]) was 0.49 µM. For the same compound, the IC50 (Plasmodium falciparum [14]) was 1.3 µM.

`CCOc1ccc2cc(-c3nn(CC4CCN(C)CC4)c4ncnc(N)c34)ccc2c1` showed an EC50 (Plasmodium falciparum [15]) of 0.047 µM and an EC50 (Plasmodium falciparum [7]) of 8 µM.

With `Cc1ccc(C(=O)c2c(N)c(C(N)=O)c3ccccn23)cc1` the Ki [9] was 0.262 µM, the inhibition [16] was 75% and the inhibition [17] was 54%.

For `C[C@H]1[C@@H](O)O[C@@H]2O[C@@]3(C)CC[C@H]4[C@H](C)CC[C@@H]1[C@@]24OO3` [ARTENIMOL], the IC50 (Plasmodium falciparum [7]) was 0.003 µM, the IC50 [8] was 0.0041 µM and the ED50 (Plasmodium berghei [18]) was 1.95 mg/kg.

In the case of `Cc1cn2c(-c3ccnc(NCC4CC4)n3)c(-c3ccc(F)c(NS(C)(=O)=O)c3)nc2cc1CN(C)C`, the IC50 (Plasmodium falciparum [2]) is reported as 0.0021 µM, the IC50 [3] is reported as 0.00016 µM and the IC50 (Plasmodium falciparum [19]) is reported as 0.041 µM. The Activity (Plasmodium falciparum [20]) was 99.9%.

For `CCOc1ccc2cc(-c3nn(CC4CCNCC4)c4ncnc(N)c34)ccc2c1`, the EC50 (Plasmodium falciparum [15]) was 0.035 µM and the EC50 (Plasmodium falciparum [7]) was 2 µM.

For `COc1cc(-c2cc(-c3ccc(S(C)(=O)=O)cc3)cnc2N)ccc1O`, the IC50 [4] was 0.01 µM and the ED90 (Plasmodium berghei [5]) was 43.7 mg/kg.

Compound `CN1CCN(CCCN2c3ccccc3Sc3ccc(C(F)(F)F)cc32)CC1` [TRIFLUOPERAZINE] has a Ki [21] of 150 µM and an EC50 (Plasmodium falciparum [22]) of 1.9 µM.
